Common to all, as to format: cell-based
Experiment [1] has as its system spores of ATCC BBA1870 strain. The experiment can be described thus: Inhibition of germination of C. difficile spores (MIC), strain ATCC BBA1870. To be noted: Clostridioides difficile, ATCCBBA1870STRAIN, 1 h, read-out: MIC (minimum concentration that completely inhibits spore germination). As to the method: (§1) According to a method disclosed in “The Journal of Infectious Diseases. 2013; 207: 1498-504”, spores of ATCC BBA1870, ATCC 43255 and ATCC 630 strains were obtained by culture and purification, and stored at 4° C.
(§2) Spore preparation: the C. difficile spores stored at 4° C. were heat-activated for 30 min at 65° C., centrifuged at 9,400 g for 2 min, and washed three times to remove any self-germinating spores.
(§3) Control drug: three cholic acid derivatives, a compound CamSA, a compound 20β (prepared by the method of “Journal of Medicinal Chemistry. 2017, 60 (8): 3451-3471”), and a compound 12a (prepared by the method of “Journal of Medicinal Chemistry. 2018, 61, 6759-6778”), were used as control drugs.
(§4) Compound preparation: the compound of the present disclosure, and the positive control drugs CamSA, 20β, and 12a were dissolved in DMSO, to prepare a stock solution with a concentration of 10 mM (prepared for immediate use).
(§5) The detection was conducted in a 96-well cell culture plate at a constant temperature of 37° C.; a final volume of each well of the 96-well plate was […] and a buffer was the BHIS medium; 150 μl of spores and drugs were added to the well in advance, and 50 μl of 4 mg/ml sodium taurocholate was added; OD580 was detected every 1 min immediately using a microplate reader, for continuously 60 min. A germination agent control group and a non-germination group were set up; after the detection, a final OD value of each well was compared with an initial value, and compared with the germination agent group to calculate a germination rate and an inhibition rate. A formula for the germination rate was:
(§6) Inhibition rate=100%−germination rate.

The subject of experiment [2] is spores of ATCC 43255 strain. The experiment can be described thus: Inhibition of germination of C. difficile spores (MIC), strain ATCC 43255. To be noted: Clostridioides difficile, ATCC43255, 1 h, read-out: MIC (minimum concentration that completely inhibits spore germination). The procedure:
as §1, §2, §3, §4, §5, §6

The subject of experiment [3] is spores of ATCC 630 strain. The experiment can be described thus: Inhibition of germination of C. difficile spores (MIC), strain ATCC 630. Conditions: Clostridioides difficile, ATCC630, 1 h, read-out: MIC (minimum concentration that completely inhibits spore germination). As to the method:
as §1, §2, §3, §4, §5, §6

Setting [4] is: strain 1870, sodium taurocholate as germinant, BHIS medium, 37° C., OD580 for 60 min.
[5] abbreviates: strain 43255, sodium taurocholate as germinant, BHIS medium, 37° C., OD580 for 60 min.
Where [6] appears, read: strain 630, sodium taurocholate as germinant, BHIS medium, 37° C., OD580 for 60 min.

In brackets after ≈: the same amount, converted by molar mass. Read-outs that look alike come from different tables or passages of the source.

`C[C@H](CC(=O)NC(c1cccs1)C1CCC1)[C@H]1CC[C@H]2[C@@H]3C(=O)C[C@@H]4CC(=O)CC[C@]4(C)[C@H]3CC[C@]12C` (stereo partly drawn) [Compound I-57]: the figures for the MIC in experiment [1] (setting [4]), in experiment [2] (setting [5]) and in experiment [3] (setting [6]) were 32 µM (≈ 16.8 µg/mL), 32 µM (≈ 16.8 µg/mL) and 16 µM (≈ 8.38 µg/mL), respectively.

As for `CCC(NC(=O)C[C@@H](C)[C@H]1CC[C@H]2[C@@H]3C(=O)C[C@@H]4CC(=O)CC[C@]4(C)[C@H]3CC[C@]12C)c1ccccc1` (stereo partly drawn) [Compound I-58], the values for the MIC in experiment [1], in experiment [2] and in experiment [3] were 8 µM (≈ 3.93 µg/mL), 4 µM (≈ 1.97 µg/mL) and 4 µM (≈ 1.97 µg/mL), respectively.

`CC[C@H](NC(=O)C[C@@H](C)[C@H]1CC[C@H]2[C@@H]3C(=O)C[C@@H]4CC(=O)CC[C@]4(C)[C@H]3CC[C@]12C)c1ccccc1` [Compound I-59]: the MIC in experiment [1] came out at 128 µM (≈ 62.9 µg/mL); in experiment [2] it was 64 µM (≈ 31.5 µg/mL); in experiment [3] it was 64 µM (≈ 31.5 µg/mL).

In the case of `CC[C@@H](NC(=O)C[C@@H](C)[C@H]1CC[C@H]2[C@@H]3C(=O)C[C@@H]4CC(=O)CC[C@]4(C)[C@H]3CC[C@]12C)c1ccccc1` [Compound I-60], the MIC in experiment [1], in experiment [2] and in experiment [3] was 2 µM (≈ 0.983 µg/mL) in each case.

With `C[C@H](CC(=O)NC(c1ccccc1)c1ccccc1)[C@H]1CC[C@H]2[C@@H]3C(=O)C[C@@H]4CC(=O)CC[C@]4(C)[C@H]3CC[C@]12C` [Compound I-61], the MIC in experiment [1] (setting [4]), in experiment [2] (setting [5]) and in experiment [3] (setting [6]) was 128 µM (≈ 69.1 µg/mL) throughout.

Regarding `C[C@H](CC(=O)NC(Cc1ccccc1)c1ccccc1)[C@H]1CC[C@H]2[C@@H]3C(=O)C[C@@H]4CC(=O)CC[C@]4(C)[C@H]3CC[C@]12C` (stereo partly drawn) [Compound I-62], the MIC in experiment [1] came to 256 µM (≈ 142 µg/mL); in experiment [2] it was 128 µM (≈ 70.9 µg/mL); in experiment [3], 128 µM (≈ 70.9 µg/mL).

Consider `C[C@H](CC(=O)NC(C(=O)O)c1ccccc1)[C@H]1CC[C@H]2[C@@H]3C(=O)C[C@@H]4CC(=O)CC[C@]4(C)[C@H]3CC[C@]12C` (stereo partly drawn) [Compound I-63], for which the figures for the MIC in experiment [1] (setting [4]), in experiment [2] (setting [5]) and in experiment [3] (setting [6]) were above 256 µM, 256 µM (≈ 130 µg/mL) and 256 µM (≈ 130 µg/mL), respectively.

For the compound `C[C@H](CC(=O)NC(CC(=O)O)c1ccccc1)[C@H]1CC[C@H]2[C@@H]3C(=O)C[C@@H]4CC(=O)CC[C@]4(C)[C@H]3CC[C@]12C` (stereo partly drawn) [Compound I-64], the MIC in experiment [1] (setting [4]), in experiment [2] (setting [5]) and in experiment [3] (setting [6]) was above 256 µM in each case.

`C[C@H](CC(=O)NCc1ccccn1)[C@H]1CC[C@H]2[C@@H]3C(=O)C[C@@H]4CC(=O)CC[C@]4(C)[C@H]3CC[C@]12C` [Compound I-65]: the MIC in experiment [1] (setting [4]), in experiment [2] (setting [5]) and in experiment [3] (setting [6]) was 128 µM (≈ 59.5 µg/mL) each time.

For the compound `CC(C)[C@@H](NC(=O)C[C@@H](C)[C@H]1CC[C@H]2[C@@H]3C(=O)C[C@@H]4CC(=O)CC[C@]4(C)[C@H]3CC[C@]12C)c1cccs1` [Compound I-66], the MIC in experiment [1] (setting [4]), in experiment [2] (setting [5]) and in experiment [3] (setting [6]) was 0.25 µM (≈ 0.128 µg/mL) in each case.

Regarding `CC(C)[C@H](NC(=O)C[C@@H](C)[C@H]1CC[C@H]2[C@@H]3C(=O)C[C@@H]4CC(=O)CC[C@]4(C)[C@H]3CC[C@]12C)c1cccs1` [Compound I-67], the MIC in experiment [1] (setting [4]), in experiment [2] (setting [5]) and in experiment [3] (setting [6]) was above 256 µM in each case.

As for `CCC(NC(=O)C[C@@H](C)[C@H]1CC[C@H]2[C@@H]3C(=O)C[C@@H]4CC(=O)CC[C@]4(C)[C@H]3CC[C@]12C)c1ccc(Cl)s1` (stereo partly drawn) [Compound I-68], the results for the MIC in experiment [1] (setting [4]), in experiment [2] (setting [5]) and in experiment [3] (setting [6]) were 1 µM (≈ 0.532 µg/mL), 2 µM (≈ 1.06 µg/mL) and 1 µM (≈ 0.532 µg/mL), respectively.

As for `CC[C@H](NC(=O)C[C@@H](C)[C@H]1CC[C@H]2[C@@H]3C(=O)C[C@@H]4CC(=O)CC[C@]4(C)[C@H]3CC[C@]12C)c1ccc(Cl)s1` [Compound I-69], the MIC in experiment [1] (setting [4]) was determined as 8 µM (≈ 4.26 µg/mL); in experiment [2] (setting [5]), 16 µM (≈ 8.52 µg/mL); in experiment [3] (setting [6]) it was 8 µM (≈ 4.26 µg/mL).

For the compound `CC[C@@H](NC(=O)C[C@@H](C)[C@H]1CC[C@H]2[C@@H]3C(=O)C[C@@H]4CC(=O)CC[C@]4(C)[C@H]3CC[C@]12C)c1ccc(Cl)s1` [Compound I-70], the MIC in experiment [1] (setting [4]) is 0.25 µM (≈ 0.133 µg/mL); in experiment [2] (setting [5]) it was 0.5 µM (≈ 0.266 µg/mL); in experiment [3] (setting [6]) it was 0.25 µM (≈ 0.133 µg/mL).

For the compound `CC[C@H](NC(=O)C[C@@H](C)[C@H]1CC[C@H]2[C@@H]3C(=O)C[C@@H]4CC(=O)CC[C@]4(C)[C@H]3CC[C@]12C)c1ccc(Br)s1` [Compound I-71], the MIC in experiment [1] (setting [4]) stood at 32 µM (≈ 18.5 µg/mL); in experiment [2] (setting [5]) it was 16 µM (≈ 9.23 µg/mL); in experiment [3] (setting [6]), 16 µM (≈ 9.23 µg/mL).

`CC[C@@H](NC(=O)C[C@@H](C)[C@H]1CC[C@H]2[C@@H]3C(=O)C[C@@H]4CC(=O)CC[C@]4(C)[C@H]3CC[C@]12C)c1ccc(Br)s1` [Compound I-72]: the MIC in experiment [1] (setting [4]) came to 1 µM (≈ 0.577 µg/mL); in experiment [2] (setting [5]), 1 µM (≈ 0.577 µg/mL); in experiment [3] (setting [6]), 0.5 µM (≈ 0.288 µg/mL).

Take `CC[C@H](NC(=O)C[C@@H](C)[C@H]1CC[C@H]2[C@@H]3C(=O)C[C@@H]4CC(=O)CC[C@]4(C)[C@H]3CC[C@]12C)c1ccc(S(=O)(=O)O)s1` [Compound I-73]: the MIC in experiment [1] (setting [4]), in experiment [2] (setting [5]) and in experiment [3] (setting [6]) was above 256 µM in each case.

`CC[C@@H](NC(=O)C[C@@H](C)[C@H]1CC[C@H]2[C@@H]3C(=O)C[C@@H]4CC(=O)CC[C@]4(C)[C@H]3CC[C@]12C)c1ccc(S(=O)(=O)O)s1` [Compound I-74]: the MIC in experiment [1] (setting [4]), in experiment [2] (setting [5]) and in experiment [3] (setting [6]) was 16 µM (≈ 9.24 µg/mL) each time.

For the compound `CC(C)C(NC(=O)C[C@@H](C)[C@H]1CC[C@H]2[C@@H]3C(=O)C[C@@H]4CC(=O)CC[C@]4(C)[C@H]3CC[C@]12C)c1ccc(Cl)s1` (stereo partly drawn) [Compound I-75], the MIC in experiment [1] (setting [4]), in experiment [2] (setting [5]) and in experiment [3] (setting [6]) was 0.5 µM (≈ 0.273 µg/mL) each time.

On to `CC(C)[C@H](NC(=O)C[C@@H](C)[C@H]1CC[C@H]2[C@@H]3C(=O)C[C@@H]4CC(=O)CC[C@]4(C)[C@H]3CC[C@]12C)c1ccc(Cl)s1` [Compound I-76], for which the MIC in experiment [1] (setting [4]), in experiment [2] (setting [5]) and in experiment [3] (setting [6]) was above 256 µM each time.

Turning to `CC(C)[C@@H](NC(=O)C[C@@H](C)[C@H]1CC[C@H]2[C@@H]3C(=O)C[C@@H]4CC(=O)CC[C@]4(C)[C@H]3CC[C@]12C)c1ccc(Cl)s1` [Compound I-77], the MIC in experiment [1] (setting [4]), in experiment [2] (setting [5]) and in experiment [3] (setting [6]) was 0.25 µM (≈ 0.137 µg/mL) in each case.

As for `CC(C)C(NC(=O)C[C@@H](C)[C@H]1CC[C@H]2[C@@H]3C(=O)C[C@@H]4CC(=O)CC[C@]4(C)[C@H]3CC[C@]12C)c1ccc(Br)s1` (stereo partly drawn) [Compound I-78], the MIC in experiment [1] (setting [4]) is 0.5 µM (≈ 0.295 µg/mL); in experiment [2] (setting [5]), 1 µM (≈ 0.591 µg/mL); in experiment [3] (setting [6]) it was 0.5 µM (≈ 0.295 µg/mL).

Consider `CC(C)[C@H](NC(=O)C[C@@H](C)[C@H]1CC[C@H]2[C@@H]3C(=O)C[C@@H]4CC(=O)CC[C@]4(C)[C@H]3CC[C@]12C)c1ccc(Br)s1` [Compound I-79], for which the MIC worked out at 8 µM (≈ 4.73 µg/mL) in experiment [1] (setting [4]), 8 µM (≈ 4.73 µg/mL) in experiment [2] (setting [5]) and 4 µM (≈ 2.36 µg/mL) in experiment [3] (setting [6]).

As to `CC(C)[C@@H](NC(=O)C[C@@H](C)[C@H]1CC[C@H]2[C@@H]3C(=O)C[C@@H]4CC(=O)CC[C@]4(C)[C@H]3CC[C@]12C)c1ccc(Br)s1` [Compound I-80], the MIC in experiment [1] (setting [4]), in experiment [2] (setting [5]) and in experiment [3] (setting [6]) was 0.125 µM (≈ 0.0738 µg/mL) each time.

Take `CC(C)C(NC(=O)C[C@@H](C)[C@H]1CC[C@H]2[C@@H]3C(=O)C[C@@H]4CC(=O)CC[C@]4(C)[C@H]3CC[C@]12C)c1ccc(S(=O)(=O)O)s1` (stereo partly drawn) [Compound I-81]: the MIC in experiment [1] (setting [4]), in experiment [2] (setting [5]) and in experiment [3] (setting [6]) was 32 µM (≈ 18.9 µg/mL) each time.

As to `CC(C)[C@H](NC(=O)C[C@@H](C)[C@H]1CC[C@H]2[C@@H]3C(=O)C[C@@H]4CC(=O)CC[C@]4(C)[C@H]3CC[C@]12C)c1ccc(S(=O)(=O)O)s1` [Compound I-82], the results for the MIC in experiment [1] (setting [4]), in experiment [2] (setting [5]) and in experiment [3] (setting [6]) were above 256 µM, 256 µM (≈ 152 µg/mL) and above 256 µM, respectively.

Source of the values: US20230135729A1, “COMPOUND WITH ANTI-SPORE ACTIVITY AND PHARMACEUTICAL COMPOSITION THEREOF” (priority 2020, published 2023).
